From ChEMBL document CHEMBL4680060, “Polybasic peptide-levofloxacin conjugates potentiate fluoroquinolones and other classes of antibiotics against multidrug-resistant Gram-negative bacteria” (Medchemcomm, 2019)
≈ marks a conversion by molar mass, not a printed value. Calls of active or inactive are those of the source. The rule behind the calls is not given here.

Experiments:
Pseudomonas aeruginosa [1] = assay: Potentiation of linezolid-induced antibacterial activity against wild type Pseudomonas aeruginosa PAO1 measured after 18 hrs by CLSI protocol based microbroth dilution method; format: functional, organism-based
Pseudomonas aeruginosa [2] = assay: Synergistic antibacterial activity against multidrug resistant Pseudomonas aeruginosa PA264 in presence of ciprofloxacin by Checkerboard assay; format: functional, organism-based
Pseudomonas aeruginosa [3] = assay: Potentiation of vancomycin-induced antibacterial activity against wild type Pseudomonas aeruginosa PAO1 measured after 18 hrs by CLSI protocol based microbroth dilution method; format: functional, organism-based
Escherichia coli [4] = assay: Synergistic antibacterial activity against Escherichia coli 94393 in presence of moxifloxacin by Checkerboard assay; format: functional, organism-based
Pseudomonas aeruginosa [5] = assay: Synergistic antibacterial activity against multidrug resistant Pseudomonas aeruginosa PA264 in presence of moxifloxacin by Checkerboard assay; format: functional, organism-based
Klebsiella pneumoniae [6] = assay: Synergistic antibacterial activity against Klebsiella pneumoniae 116381 in presence of ciprofloxacin by Checkerboard assay; format: functional, organism-based
Escherichia coli [7] = assay: Synergistic antibacterial activity against Escherichia coli ATCC 25922 in presence of moxifloxacin by Checkerboard assay; format: functional, organism-based
Pseudomonas aeruginosa [8] = assay: Synergistic antibacterial activity against multidrug resistant Pseudomonas aeruginosa PA259 in presence of levofloxacin by Checkerboard assay; format: functional, organism-based
Pseudomonas aeruginosa [9] = assay: Potentiation of moxifloxacin-induced antibacterial activity against wild type Pseudomonas aeruginosa PAO1 assessed as […] measured after 18 hrs by CLSI protocol based microbroth dilution method relative to moxifloxacin MIC; format: functional
[10] = tested on: Staphylococcus epidermidis; assay: Antibacterial activity against methicillin-susceptible Staphylococcus epidermidis clinical isolate CANWARD-2008 81388 assessed as inhibition of visible growth incubated for 18 hrs by CLSI protocol based microbroth dilution method; format: functional
Pseudomonas aeruginosa [11] = assay: Additive antibacterial activity against MexAB-OprM efflux pump deficient Pseudomonas aeruginosa PAO200 in presence of levofloxacin by Checkerboard assay; format: functional, organism-based
Acinetobacter baumannii [12] = assay: Synergistic antibacterial activity against multidrug resistant Acinetobacter baumannii AB027 assessed as fractional inhibitory concentration index in presence of ciprofloxacin by Checkerboard assay; format: functional
Pseudomonas aeruginosa [13] = assay: Synergistic antibacterial activity against multidrug resistant Pseudomonas aeruginosa PA262 in presence of moxifloxacin by Checkerboard assay; format: functional, organism-based
Pseudomonas aeruginosa [14] = assay: Synergistic antibacterial activity against multidrug resistant Pseudomonas aeruginosa PA260 in presence of moxifloxacin by Checkerboard assay; format: functional, organism-based
Pseudomonas aeruginosa [15] = assay: Potentiation of clindamycin-induced antibacterial activity against wild type Pseudomonas aeruginosa PAO1 measured after 18 hrs by CLSI protocol based microbroth dilution method; format: functional, organism-based
Pseudomonas aeruginosa [16] = assay: Synergistic antibacterial activity against multidrug resistant Pseudomonas aeruginosa PA100036 in presence of moxifloxacin by Checkerboard assay; format: functional, organism-based
Pseudomonas aeruginosa [17] = assay: Synergistic antibacterial activity against multidrug resistant Pseudomonas aeruginosa PA101885 in presence of moxifloxacin by Checkerboard assay; format: functional, organism-based
Escherichia coli [18] = assay: Synergistic antibacterial activity against Escherichia coli 94393 in presence of levofloxacin by Checkerboard assay; format: functional, organism-based
Pseudomonas aeruginosa [19] = assay: Synergistic antibacterial activity against multidrug resistant Pseudomonas aeruginosa PA260 in presence of ciprofloxacin by Checkerboard assay; format: functional, organism-based
Staphylococcus aureus = assay: Antibacterial activity against methicillin-resistant Staphylococcus aureus clinical isolate CAN-ICU 61589 assessed as inhibition of visible growth incubated for 18 hrs by CLSI protocol based microbroth dilution method; format: functional
Acinetobacter baumannii [20] = assay: Synergistic antibacterial activity against multidrug resistant Acinetobacter baumannii AB027 assessed as fractional inhibitory concentration index in presence of levofloxacin by Checkerboard assay; format: functional
[21] = tested on: Stenotrophomonas maltophilia; assay: Antibacterial activity against Stenotrophomonas maltophilia clinical isolate CAN-ICU 62584 assessed as inhibition of visible growth incubated for 18 hrs by CLSI protocol based microbroth dilution method; format: functional
Pseudomonas aeruginosa [22] = assay: Potentiation of ciprofloxacin-induced antibacterial activity against wild type Pseudomonas aeruginosa PAO1 assessed as ciprofloxacin MIC measured after 18 hrs by CLSI protocol based microbroth dilution method (reference value: 0.125 ug/ml); format: functional
Klebsiella pneumoniae [23] = assay: Synergistic antibacterial activity against Klebsiella pneumoniae 116381 in presence of moxifloxacin by Checkerboard assay; format: functional, organism-based
Pseudomonas aeruginosa [24] = assay: Synergistic antibacterial activity against wild type Pseudomonas aeruginosa PAO1 assessed as fractional inhibitory concentration index in presence of levofloxacin by Checkerboard assay; format: functional
Pseudomonas aeruginosa [25] = assay: Additive antibacterial activity against MexAB-OprM, MexCD-OprJ, MexEF-OprN, MexJK and MexXY efflux pumps deficient Pseudomonas aeruginosa PAO750 in presence of ciprofloxacin by Checkerboard assay; format: functional, organism-based
Pseudomonas aeruginosa [26] = assay: Potentiation of moxifloxacin-induced antibacterial activity against wild type Pseudomonas aeruginosa PAO1 assessed as moxifloxacin MIC measured after 18 hrs by CLSI protocol based microbroth dilution method (reference value: 1 ug/ml); format: functional
Pseudomonas aeruginosa [27] = assay: Synergistic antibacterial activity against multidrug resistant Pseudomonas aeruginosa PA264 in presence of levofloxacin by Checkerboard assay; format: functional, organism-based
Pseudomonas aeruginosa [28] = assay: Potentiation of pleuromutilin-induced antibacterial activity against wild type Pseudomonas aeruginosa PAO1 measured after 18 hrs by CLSI protocol based microbroth dilution method; format: functional, organism-based
Escherichia coli [29] = assay: Additive antibacterial activity against Escherichia coli 94393 in presence of ciprofloxacin by Checkerboard assay; format: functional, organism-based
Streptococcus pneumoniae = assay: Antibacterial activity against Streptococcus pneumoniae ATCC 49619 assessed as inhibition of visible growth incubated for 18 hrs by CLSI protocol based microbroth dilution method; format: functional
Pseudomonas aeruginosa [30] = assay: Potentiation of chloramphenicol-induced antibacterial activity against wild type Pseudomonas aeruginosa PAO1 measured after 18 hrs by CLSI protocol based microbroth dilution method; format: functional, organism-based
Pseudomonas aeruginosa [31] = assay: Potentiation of levofloxacin-induced antibacterial activity against wild type Pseudomonas aeruginosa PAO1 assessed as levofloxacin MIC measured after 18 hrs by CLSI protocol based microbroth dilution method (reference value: 0.5 ug/ml); format: functional
Pseudomonas aeruginosa [32] = assay: Antibacterial activity against Pseudomonas aeruginosa ATCC 27853 assessed as inhibition of visible growth incubated for 18 hrs by CLSI protocol based microbroth dilution method; format: functional
Acinetobacter baumannii [33] = assay: Synergistic antibacterial activity against Acinetobacter baumannii ATCC 17978 in presence of moxifloxacin by Checkerboard assay; format: functional, organism-based
Pseudomonas aeruginosa [34] = assay: Potentiation of rifampicin-induced antibacterial activity against wild type Pseudomonas aeruginosa PAO1 measured after 18 hrs by CLSI protocol based microbroth dilution method; format: functional, organism-based
[35] = Hemolytic activity in pig erythrocyte at 512 ug/ml incubated for 1 hr by microplate reader assay relative to control; format: ADME, cell-based, Sus scrofa; settings: pig erythrocytes, at 512 µg/mL, read-out: Activity
Acinetobacter baumannii [36] = assay: Antibacterial activity against Acinetobacter baumannii clinical isolate CAN-ICU 63169 assessed as inhibition of visible growth incubated for 18 hrs by CLSI protocol based microbroth dilution method; format: functional
Pseudomonas aeruginosa [37] = assay: Synergistic antibacterial activity against wild type Pseudomonas aeruginosa PAO1 in presence of ciprofloxacin by Checkerboard assay; format: functional, organism-based
Pseudomonas aeruginosa [38] = assay: Additive antibacterial activity against MexAB-OprM, MexCD-OprJ, MexEF-OprN, MexJK and MexXY efflux pumps deficient Pseudomonas aeruginosa PAO750 in presence of levofloxacin by Checkerboard assay; format: functional, organism-based
Pseudomonas aeruginosa [39] = assay: Potentiation of ciprofloxacin-induced antibacterial activity against wild type Pseudomonas aeruginosa PAO1 assessed as fold reduction in ciprofloxacin MIC measured after 18 hrs by CLSI protocol based microbroth dilution method relative to ciprofloxacin MIC; format: functional
Escherichia coli [40] = assay: Synergistic antibacterial activity against Escherichia coli 94474 in presence of moxifloxacin by Checkerboard assay; format: functional, organism-based

For C[C@H]1COc2c(N3CCN(C)CC3)c(F)cc3c(=O)c(C(=O)NCCCCCCCCCCCC(=O)N[C@@H](CCN)C(=O)N[C@@H](CCN)C(N)=O)cn1c23, the Activity (Pseudomonas aeruginosa [1]) was “Active”, the Activity (Pseudomonas aeruginosa [2]) was “Active” and the Activity (Pseudomonas aeruginosa [3]) was “Active”. For the same compound, the Activity (Escherichia coli [4]) was “Active”, the Activity (Pseudomonas aeruginosa [5]) was “Active” and the Activity (Klebsiella pneumoniae [6]) was “Active”. For the same compound, the Activity (Escherichia coli [7]) was “Active”, the Activity (Pseudomonas aeruginosa [8]) was “Active” and the Ratio (Pseudomonas aeruginosa [9]) was 4. For the same compound, the MIC [10] was 64 µg/mL (≈ 84.4 µM), the Activity (Pseudomonas aeruginosa [11]) was “Active” and the “fractional inhibitory concentration index (FICI)” value (Acinetobacter baumannii [12]) was 0.37. The Activity (Pseudomonas aeruginosa [13]) was “Active”, the Activity (Pseudomonas aeruginosa [14]) was “Active” and the Activity (Pseudomonas aeruginosa [15]) was “Active”. For the same compound, the Activity (Pseudomonas aeruginosa [16]) was “Active”, the Activity (Pseudomonas aeruginosa [17]) was “Active” and the Activity (Escherichia coli [18]) was “Active”. For the same compound, the Activity (Pseudomonas aeruginosa [19]) was “Active”, the MIC (Staphylococcus aureus) was 128 µg/mL (≈ 169 µM) and the “fractional inhibitory concentration index (FICI)” value (Acinetobacter baumannii [20]) was 0.37. The MIC [21] was > 128 µg/mL, the MIC (Pseudomonas aeruginosa [22]) was 0.031 µg/mL and the Activity (Klebsiella pneumoniae [23]) was “Active”. For the same compound, the “fractional inhibitory concentration index (FICI)” value (Pseudomonas aeruginosa [24]) was 0.5, the Activity (Pseudomonas aeruginosa [25]) was “Active” and the MIC (Pseudomonas aeruginosa [26]) was 0.25 µg/mL. The Activity (Pseudomonas aeruginosa [27]) was “Active”, the Activity (Pseudomonas aeruginosa [28]) was “Active” and the Activity (Escherichia coli [29]) was “Active”. The MIC (Streptococcus pneumoniae) was > 128 µg/mL, the Activity (Pseudomonas aeruginosa [30]) was “Active” and the MIC (Pseudomonas aeruginosa [31]) was 0.063 µg/mL. The MIC (Pseudomonas aeruginosa [32]) was > 128 µg/mL, the Activity (Acinetobacter baumannii [33]) was “inactive” and the Activity (Pseudomonas aeruginosa [34]) was “Active”. The hemolysis at 1 h, 512 ug/ml [35] was < 1%, the MIC (Acinetobacter baumannii [36]) was > 128 µg/mL and the Activity (Pseudomonas aeruginosa [37]) was “Active”. For the same compound, the Activity (Pseudomonas aeruginosa [38]) was “Active”, the Ratio (Pseudomonas aeruginosa [39]) was 4 and the Activity (Escherichia coli [40]) was “Active”.
